Reference: PMC11596392, “Enhanced Antibacterial, Anti-Inflammatory, and Antibiofilm Activities of Tryptophan-Substituted Peptides Derived from Cecropin A-Melittin Hybrid Peptide BP100” (Molecules, 2024)
≈ marks a conversion by molar mass, not a printed value. Like-named read-outs stand apart in the source and are kept apart here. Where no end group is shown, it is not given here.

Tested on: S. aureus (KCTC 1621)
Assay type: cell-based, Staphylococcus aureus
Description: To comprehensively evaluate the therapeutic potential of BP100 and the five selected analogs, we assessed their capacity to maintain antibacterial activity in the presence of physiological salts and serum (Table 4). Antibacterial assays were conducted in an environment supplemented with either […] fresh human serum or physiological salts. […] This enhanced stability in physiologically relevant conditions may have important implications for the potential therapeutic applications of these peptide analogs.
The minimal inhibitory concentrations (MICs) of the peptides against bacterial strains were determined using a modified broth-microdilution method in accordance with the National Committee for Clinical Laboratory Standards (NCCLS) guidelines. Overnight cultures were diluted in cation-adjusted Mueller–Hinton Broth (MHB) to achieve an inoculum density of 2 × 10^6 CFU/mL. A two-fold serial dilution of the peptide solution (100 μL) was introduced into microtiter plates, followed by the addition of 100 μL of bacterial suspension. The plates were then incubated at 37 °C for 24 h to determine the MICs. Wells containing only culture media served as negative controls, while those with added bacteria functioned as positive controls. The MIC, expressed in μM, was defined as the lowest peptide concentration that prevented visible bacterial growth. This protocol was also employed to determine MICs in the presence of physiological salts (150 mM of NaCl, 4.5 mM of KCl, 6 μM of NH4Cl, 1 mM of MgCl2, 2.5 mM of CaCl2, and 4 μM of FeCl3) and 20% human serum to assess the peptides’ efficacy under conditions more closely resembling physiological environments. All experiments were conducted in triplicate and repeated three times independently to ensure reproducibility and statistical significance of the results.

Row | Compound | MIC (4 μM of FeCl3) [µM] | MIC (6 μM of NH4Cl) [µM] | MIC (1 mM of MgCl2) [µM] | MIC (2.5 mM of CaCl2) [µM] | MIC (4.5 mM of KCl) [µM] | MIC (150 mM of NaCl) [µM] | MIC (Control, absence of salts) [µM]
1 | CC[C@H](C)[C@H](NC(=O)[C@H](CCCCN)NC(=O)[C@H](CCCCN)NC(=O)[C@H](Cc1ccccc1)NC(=O)[C@H](CC(C)C)NC(=O)[C@H](CCCCN)NC(=O)[C@@H](N)CCCCN)C(=O)N[C@@H](CC(C)C)C(=O)N[C@@H](CCCCN)C(=O)N[C@@H](Cc1ccc(O)cc1)C(=O)N[C@@H](CC(C)C)C(N)=O [BP100] | 16 (≈ 22.7 µg/mL) | 16 (≈ 22.7 µg/mL) | 16 (≈ 22.7 µg/mL) | 16 (≈ 22.7 µg/mL) | 16 (≈ 22.7 µg/mL) | 16 (≈ 22.7 µg/mL) | 4
2 | KKLFKKIWKWL-NH2 [BP11] | 4 | 4 | 4 | 16 | 4 | 8 | 4
3 | KKLWKKILKWL-NH2 [BP8] | 4 | 4 | 4 | 4 | 4 | 4 | 4
4 | KKWFKKILKWL-NH2 [BP6] | 8 | 4 | 4 | 4 | 4 | 4 | 2
5 | KKWFKKWLKWL-NH2 [BP13] | 8 | 8 | 8 | 8 | 8 | 8 | 4
6 | KKWWKKILKYL-NH2 [BP5] | 4 | 4 | 4 | 4 | 4 | 4 | 2
